Source: patent US11447485B2, “Class of bifunctional compounds with quanternary ammonium salt structure” (Beijing Showby Pharmaceutical Co., Ltd., priority 2016, dated 2022)
Where two headings read alike, the source gives them in different places.

Columns and labels:
[1] = target: T1, human recombinant β2 adrenoceptor (Homo sapiens, UniProt P07550); assay: cell-based; assay type: cell-based; conditions: EC50 (β1)/EC50 (β2)
T1 construct: expressed in transfected cells

[2] = system: tracheal smooth muscle of guinea pig; assay: Relaxation of CCh-induced constriction of isolated guinea pig tracheal smooth muscle (Experimental Example 1); conditions: for EC50: Cavia porcellus, read-out: EC50 (μM) ± SD
Method: The upper end was connected with a muscle tension transducer, and the specimen was given a resting tension of 1.0 g. Muscle tension changes were recorded, nutrient solution was changed every 20 min, and the experiment was started after 60 min of equilibrium.
Administration Method: After the trachea flake were stabilized, 3×10^−6 mol/L CCh was added to the bath. […] Diastolic condition of the trachea flake was observed. If no response occurred (below the threshold concentration), the next dosage was continued to be added in the order. If any response occurred, the next dosage was added until its diastolic platform was reached. The above operation was repeated until the shrink curve reached the minimum. Finally, 10^−6 mol/L isoproterenol was added to establish maximum relaxation, and the curve was recorded.
Statistical Methods: Statistics was performed using the Sigma Stat statistical software package, the data was analyzed by using the variance analysis. Student-Newman-Keuls (SNK) test was used in comparison among multiple sample averages number. The statistical test level was α=0.05 (bilateral).

T1 sequence (P07550 whole entry): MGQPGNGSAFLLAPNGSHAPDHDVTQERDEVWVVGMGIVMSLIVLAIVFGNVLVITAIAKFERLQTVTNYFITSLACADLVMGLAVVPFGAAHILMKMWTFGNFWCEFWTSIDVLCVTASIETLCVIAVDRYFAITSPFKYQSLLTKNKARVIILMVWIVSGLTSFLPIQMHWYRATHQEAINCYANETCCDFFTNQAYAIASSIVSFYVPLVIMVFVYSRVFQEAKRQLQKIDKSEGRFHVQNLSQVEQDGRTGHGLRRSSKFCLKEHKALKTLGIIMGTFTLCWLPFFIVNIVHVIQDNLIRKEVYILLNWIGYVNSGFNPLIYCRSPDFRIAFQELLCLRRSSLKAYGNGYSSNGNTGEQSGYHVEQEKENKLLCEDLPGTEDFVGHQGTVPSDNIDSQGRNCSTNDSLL

O=CNc1cc([C@@H](O)CNCCCC[N+]23CCC(CC2)[C@@H](OC[C@@](O)(c2ccccc2)C2CCCC2)C3)ccc1O [Compound 4, (R)-(−)-3-[(R)-2-hydroxy-2-cyclopentyl-2-phenyl]ethoxy-1-(4-{(R)-[2-hydroxy-2-(3-formamido-4-hydroxy)phenyl]ethylamino}butyl-1-azabicyclo[2,2,2]octylonium bromide]
sel (β1/β2) [1]: 36.8 | Onset time (min) ± SD ([2]; CCh 3 × 10^−6 mol/L, in vitro): 6.23 ± 0.23 min | Time for eliminating inhibition effect (min) ([2]; CCh 3 × 10^−6 mol/L, in vitro): more than 300 min | EC50 [2]: 0.0358 ± 0.011 µM

CCC(NC[C@H](O)c1ccc(O)c2[nH]c(=O)ccc12)c1ccc(OCCC[N+]23CCC(CC2)[C@@H](OC[C@@](O)(c2ccccc2)C2CCCC2)C3)cc1 (stereo partly drawn) [Compound 62, (R)-(−)-3-[(R)-2-hydroxy-2-cyclopentyl-2-phenyl]ethoxy-1-{3-[4-(1-{(R)-[2-hydroxy-2-(8-hydroxy-2-oxo-1,2-dihydroquinolin-5-yl)]ethylamino}propylidene)phenoxy]propyl}-1-azabicyclo[2,2,2]octylonium bromide]
sel (β1/β2) [1]: 126.7 | Onset time (min) ± SD ([2]; CCh 3 × 10^−6 mol/L, in vitro): 7.02 ± 0.22 min | Time for eliminating inhibition effect (min) ([2]; CCh 3 × 10^−6 mol/L, in vitro): more than 300 min | EC50 [2]: 0.0351 ± 0.01 µM

O=c1ccc2c([C@@H](O)CNCCOCCOCC[N+]34CCC(CC3)[C@@H](OC[C@@](O)(c3ccccc3)C3CCCC3)C4)ccc(O)c2[nH]1.[Cl-] [Compound 50]
sel (β1/β2) [1]: 56.9 | Onset time (min) ± SD ([2]; CCh 3 × 10^−6 mol/L, in vitro): 6.76 ± 0.32 min | Time for eliminating inhibition effect (min) ([2]; CCh 3 × 10^−6 mol/L, in vitro): more than 300 min | EC50 [2]: 0.0135 ± 0.0092 µM

CC(NC[C@H](O)c1ccc(O)c(NC=O)c1)c1ccc(COCC[N+]23CCC(CC2)[C@@H](OC[C@@](O)(c2ccccc2)C2CCCC2)C3)cc1 (stereo partly drawn) [Compound 117, (R)-(−)-3-[(R)-2-hydroxy-2-cyclopentyl-2-phenyl]ethoxy-1-{2-[4-(2-{(R)-[2-hydroxy-2-(3-formamido-4-hydroxy)phenyl]ethylamino}ethylidene)benzyloxy]ethyl}-1-azabicyclo[2,2,2]octylonium bromide]
sel (β1/β2) [1]: 39.8 | Onset time (min) ± SD ([2]; CCh 3 × 10^−6 mol/L, in vitro): 5.96 ± 0.21 min | Time for eliminating inhibition effect (min) ([2]; CCh 3 × 10^−6 mol/L, in vitro): more than 300 min | EC50 [2]: 0.0217 ± 0.0081 µM

OCc1cc([C@@H](O)CNCCc2ccc(OCC[N+]34CCC(CC3)[C@@H](OC[C@@](O)(c3ccccc3)C3CCCC3)C4)cc2)ccc1O [Compound 57, (R)-(−)-3-[(R)-2-hydroxy-2-cyclopentyl-2-phenyl)]ethoxy-1-{2-[4-(2-{[(R)-[2-(3-hydroxymethyl-4-hydroxy)phenyl-2-hydroxy]ethylamino}ethyl)phenoxy]ethyl}-1-azabicyclo[2,2,2]octylonium bromide]
sel (β1/β2) [1]: 68.8 | Onset time (min) ± SD ([2]; CCh 3 × 10^−6 mol/L, in vitro): 6.03 ± 0.18 min | Time for eliminating inhibition effect (min) ([2]; CCh 3 × 10^−6 mol/L, in vitro): more than 300 min | EC50 [2]: 0.0265 ± 0.016 µM

O=C1COc2c(cc(O)cc2[C@@H](O)CNCCOCc2ccc(COCC[N+]34CCC(CC3)[C@@H](OC[C@@](O)(c3ccccc3)C3CCCC3)C4)cc2)N1 [Compound 118, (R)-(−)-3-[(R)-2-hydroxy-2-cyclopentyl-2-phenyl]ethoxy-1-{2-[4-(2-{(R)-[2-hydroxy-2-(6-hydroxy-2H-1,4-benzoxazin-3(4H)-one-8-yl)]ethylamino}ethoxymethyl)benzyloxy]ethyl}-1-azabicyclo[2,2,2]octylonium bromide]
sel (β1/β2) [1]: 23.8 | Onset time (min) ± SD ([2]; CCh 3 × 10^−6 mol/L, in vitro): 6.24 ± 0.41 min | Time for eliminating inhibition effect (min) ([2]; CCh 3 × 10^−6 mol/L, in vitro): more than 300 min | EC50 [2]: 0.0241 ± 0.012 µM

O=c1ccc2c([C@@H](O)CNCc3ccc(OCCC[N+]45CCC(CC4)[C@@H](OC[C@@](O)(c4ccccc4)C4CCCC4)C5)cc3)ccc(O)c2[nH]1 [Compound 58, (R)-(−)-3-[(R)-2-hydroxy-2-cyclopentyl-2-phenyl]ethoxy-1-{3-[4-(1-{(R)-[2-hydroxy-2-(8-hydroxy-2-oxo-1,2-dihydroquinolin-5-yl)]ethylamino}methyl)phenoxy]propyl}-1-azabicyclo[2,2,2]octylonium bromide]
sel (β1/β2) [1]: 89.8 | Onset time (min) ± SD ([2]; CCh 3 × 10^−6 mol/L, in vitro): 5.56 ± 0.24 min | Time for eliminating inhibition effect (min) ([2]; CCh 3 × 10^−6 mol/L, in vitro): more than 300 min | EC50 [2]: 0.0131 ± 0.0088 µM

CCC(NC[C@H](O)c1ccc(O)c(NC=O)c1)c1ccc(OCCC[N+]23CCC(CC2)[C@@H](OC[C@@](O)(c2ccccc2)C2CCCC2)C3)cc1.[Br-] (some centres unmarked) [Compound 97]
sel (β1/β2) [1]: 56.7 | Onset time (min) ± SD ([2]; CCh 3 × 10^−6 mol/L, in vitro): 6.36 ± 0.22 min | Time for eliminating inhibition effect (min) ([2]; CCh 3 × 10^−6 mol/L, in vitro): more than 300 min | EC50 [2]: 0.0167 ± 0.0062 µM

O=CNc1cc([C@@H](O)CNCCCCOCC[N+]23CCC(CC2)[C@@H](OC[C@@](O)(c2ccccc2)C2CCCC2)C3)ccc1O [Compound 25, (R)-(−)-3-[(R)-2-hydroxy-2-cyclopentyl-2-phenyl]ethoxy-1-[2-(4-{(R)-[2-hydroxy-2-(3-formamido-4-hydroxy)phenyl]ethylamino}butoxy)ethyl]-1-azabicyclo[2,2,2]octylonium bromide]
sel (β1/β2) [1]: 30.8 | Onset time (min) ± SD ([2]; CCh 3 × 10^−6 mol/L, in vitro): 6.86 ± 0.22 min | Time for eliminating inhibition effect (min) ([2]; CCh 3 × 10^−6 mol/L, in vitro): more than 300 min | EC50 [2]: 0.822 ± 0.27 µM

OCc1cc(C(O)CNCCCCOCCCC[N+]23CCC(CC2)C(OCC(O)(c2ccccc2)C2CCCC2)C3)ccc1O [Compound 27, (R)-(−)-3-[(R)-2-hydroxy-2-cyclopentyl-2-phenyl]ethoxy-1-[4-(4-{(R)-[2-(3-hydroxymethyl-4-hydroxy)phenyl-2-hydroxy]ethylamino}butoxy)butyl-1-azabicyclo[2,2,2]octylonium bromide]
sel (β1/β2) [1]: 78.9 | Onset time (min) ± SD ([2]; CCh 3 × 10^−6 mol/L, in vitro): 5.54 ± 0.43 min | Time for eliminating inhibition effect (min) ([2]; CCh 3 × 10^−6 mol/L, in vitro): more than 300 min | EC50 [2]: 0.152 ± 0.086 µM

CC(Cc1ccc(OCC[N+]23CCC(CC2)[C@@H](OC[C@@](O)(c2ccccc2)C2CCCC2)C3)cc1)NC[C@H](O)c1ccc(O)c(CO)c1.[Br-] (some centres unmarked) [Compound 75]
sel (β1/β2) [1]: 56.8 | Onset time (min) ± SD ([2]; CCh 3 × 10^−6 mol/L, in vitro): 6.38 ± 0.35 min | Time for eliminating inhibition effect (min) ([2]; CCh 3 × 10^−6 mol/L, in vitro): more than 300 min | EC50 [2]: 0.176 ± 0.031 µM

COc1cc(CNCC(O)c2ccc(O)c3[nH]c(=O)ccc23)c(Cl)cc1NC(=O)CC[N+]12CCC(CC1)C(OCC(O)(c1ccccc1)C1CCCC1)C2 [Compound 115, (R)-(−)-3-[(R)-2-hydroxy-2-cyclopentyl-2-phenyl]ethoxy-1-{3-[5-chloro-2-methoxy-4-({(R)-[2-hydroxy-2-(8-hydroxy-2-oxo-1,2-dihydroquinolin-5-yl)]ethylamino}methyl)anilino]oxopropyl}-1-azabicyclo[2,2,2]octylonium bromide]
sel (β1/β2) [1]: 85.5 | Onset time (min) ± SD ([2]; CCh 3 × 10^−6 mol/L, in vitro): 6.82 ± 0.36 min | Time for eliminating inhibition effect (min) ([2]; CCh 3 × 10^−6 mol/L, in vitro): more than 300 min | EC50 [2]: 0.0237 ± 0.01 µM

Cc1cc(CNC[C@H](O)c2ccc(O)c(NC=O)c2)ccc1NC(=O)CC[N+]12CCC(CC1)[C@@H](OC[C@@](O)(c1ccccc1)C1CCCC1)C2.[Br-] [Compound 140]
sel (β1/β2) [1]: 86.9 | Onset time (min) ± SD ([2]; CCh 3 × 10^−6 mol/L, in vitro): 6.18 ± 0.18 min | Time for eliminating inhibition effect (min) ([2]; CCh 3 × 10^−6 mol/L, in vitro): more than 300 min | EC50 [2]: 0.0235 ± 0.0054 µM

O=C1COc2c(cc(O)cc2[C@@H](O)CNCc2ccc(OCCC[N+]34CCC(CC3)[C@@H](OC[C@@](O)(c3ccccc3)C3CCCC3)C4)cc2)N1 [Compound 102]
sel (β1/β2) [1]: 102.6 | Onset time (min) ± SD ([2]; CCh 3 × 10^−6 mol/L, in vitro): 5.78 ± 0.23 min | Time for eliminating inhibition effect (min) ([2]; CCh 3 × 10^−6 mol/L, in vitro): more than 300 min | EC50 [2]: 0.0371 ± 0.019 µM

O=c1ccc2c([C@@H](O)CNCCC[N+]34CCC(CC3)[C@@H](OC[C@@](O)(c3ccccc3)C3CCCC3)C4)ccc(O)c2[nH]1 [Compound 2, (R)-(−)-3-[(R)-2-hydroxy-2-cyclopentyl-2-phenyl]ethoxy-1-(3-{(R)-[2-hydroxy-2-(8-hydroxy-2-oxo-1,2-dihydroquinolin-5-yl)]ethylamino}propyl)-1-azabicyclo[2,2,2]octylonium bromide]
sel (β1/β2) [1]: 7.8 | Time for eliminating inhibition effect (min) ([2]; CCh 3 × 10^−6 mol/L, in vitro): more than 300 min | EC50 [2]: 0.756 ± 0.26 µM

OCc1cc(C(O)CNCCOCCOCCOCC[N+]23CCC(CC2)C(OCC(O)(c2ccccc2)C2CCCC2)C3)ccc1O [Compound 45, (R)-(−)-3-[(R)-2-hydroxy-2-cyclopentyl-2-phenyl]ethoxy-1-(2-{2-[2-(2-{(R)-[2-(3-hydroxymethyl-4-hydroxy)phenyl-2-hydroxy]ethylamino}ethoxy)ethoxy]ethoxy}ethyl)-1-azabicyclo[2,2,2]octylonium bromide]
sel (β1/β2) [1]: 120.3 | Onset time (min) ± SD ([2]; CCh 3 × 10^−6 mol/L, in vitro): 6.39 ± 0.56 min | Time for eliminating inhibition effect (min) ([2]; CCh 3 × 10^−6 mol/L, in vitro): more than 300 min | EC50 [2]: 0.0278 ± 0.0091 µM

CC(C)(NC[C@H](O)c1ccc(O)c2[nH]c(=O)ccc12)c1ccc(OCCC[N+]23CCC(CC2)[C@@H](OC[C@@](O)(c2ccccc2)C2CCCC2)C3)cc1 [Compound 84]
sel (β1/β2) [1]: 238.8 | Onset time (min) ± SD ([2]; CCh 3 × 10^−6 mol/L, in vitro): 6.78 ± 0.18 min | Time for eliminating inhibition effect (min) ([2]; CCh 3 × 10^−6 mol/L, in vitro): more than 300 min | EC50 [2]: 0.0251 ± 0.0086 µM

CC(C)[N+]1(C)[C@@H]2CC[C@H]1C[C@@H](OC(=O)C(CO)c1ccccc1)C2 (some centres unmarked) [Ipratropium bromide, ipratropium bromide, reference compound]
Onset time (min) ± SD ([2]; CCh 3 × 10^−6 mol/L, in vitro): 6.82 ± 0.28 min | Time for eliminating inhibition effect ([2]; CCh 3 × 10^−6 mol/L, in vitro): 185 min | Time for eliminating inhibition effect (min) ([2]; CCh 3 × 10^−6 mol/L, in vitro, listed as ipratropium bromide): short duration of action | EC50 ([2]; constriction induced by CCh 3 × 10^−6 mol/L, in vitro): 0.0361 ± 0.0046 µM
